Counter-ions that a name gives are not always drawn. Like-named read-outs stand apart in the source and are kept apart here. Where only a bound is given, the exact number is not on record here.

Assay [1] addresses full-length human PRMT8 isoform 1 (Homo sapiens, UniProt Q9NR22). As to the kind of experiment: PRMT8 Biochemical Assay (3H-SAM Flashplate, peptide substrate). As to conditions: read-out: Biochemical IC50 PRMT8. In short, it runs like this: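 Scintillation Flashplate capture of biotinylated histone H4 (31-45) peptide (150 nM) methylated by 1.5 nM PRMT8 using 3H-SAM (50 nM) with unlabelled SAM (550 nM); enzyme and compound preincubated 30 min, room temperature, in Bicine pH 7.6 buffer with TCEP, BSG, Tween 20 and 2% DMSO. Stopped with excess cold SAM (400 uM); IC50 from % inhibition, min control 1 mM SAH.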

For assay [2], the target named is full-length human PRMT1 isoform 1 (GST-tagged) (Homo sapiens, UniProt Q99873). Put plainly: PRMT1 Biochemical Assay (3H-SAM Flashplate, peptide substrate). The method, boiled down:
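Tritiated methyl transfer from 3H-SAM onto biotinylated peptide, captured on streptavidin Flashplates and counted. Baculovirus-expressed GST-PRMT1 and compound were preincubated 30 min at room temperature in Bicine buffer pH 7.6. Cold SAM at 300 uM final ended the reaction.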

Setting [3] is: single experiment or average of multiple experiments.

Chain of full-length human PRMT8 isoform 1 (Q9NR22 whole entry, canonical isoform): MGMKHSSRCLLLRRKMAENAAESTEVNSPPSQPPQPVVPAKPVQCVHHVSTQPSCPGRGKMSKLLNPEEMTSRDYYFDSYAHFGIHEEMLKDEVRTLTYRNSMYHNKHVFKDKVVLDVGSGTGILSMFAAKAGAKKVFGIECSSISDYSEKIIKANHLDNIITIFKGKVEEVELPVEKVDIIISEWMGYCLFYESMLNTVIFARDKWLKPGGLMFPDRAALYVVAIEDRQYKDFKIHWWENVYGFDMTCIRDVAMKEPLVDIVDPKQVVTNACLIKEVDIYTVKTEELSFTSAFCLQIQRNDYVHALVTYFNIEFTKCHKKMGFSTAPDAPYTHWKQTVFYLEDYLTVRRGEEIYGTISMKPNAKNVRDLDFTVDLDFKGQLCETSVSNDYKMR
Chain of full-length human PRMT1 isoform 1 (GST-tagged) (Q99873 with tags, fused parts or gaps): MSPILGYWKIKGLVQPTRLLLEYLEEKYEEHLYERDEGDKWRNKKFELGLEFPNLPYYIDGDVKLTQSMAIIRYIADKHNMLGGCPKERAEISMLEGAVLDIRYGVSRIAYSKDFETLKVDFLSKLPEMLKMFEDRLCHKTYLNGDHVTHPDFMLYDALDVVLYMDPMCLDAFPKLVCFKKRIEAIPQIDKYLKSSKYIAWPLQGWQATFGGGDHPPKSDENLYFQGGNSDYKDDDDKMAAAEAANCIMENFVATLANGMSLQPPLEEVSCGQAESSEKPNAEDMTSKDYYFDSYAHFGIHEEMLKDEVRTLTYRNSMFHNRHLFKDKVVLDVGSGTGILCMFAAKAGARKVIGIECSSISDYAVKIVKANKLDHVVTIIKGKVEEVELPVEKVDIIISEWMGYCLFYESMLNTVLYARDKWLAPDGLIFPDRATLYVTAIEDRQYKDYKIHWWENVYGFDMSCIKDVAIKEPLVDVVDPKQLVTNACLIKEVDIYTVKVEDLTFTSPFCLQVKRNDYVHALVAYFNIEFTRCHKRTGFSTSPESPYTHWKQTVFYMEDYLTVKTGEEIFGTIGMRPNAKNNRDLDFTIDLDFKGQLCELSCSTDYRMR

For orientation: IC50 means the point on the concentration scale where inhibition reaches its midpoint. For `CCOC[C@H]1CC(c2n[nH]cc2CN(C)CCNC)C[C@H](COCC)C1` (some centres unmarked) [Compound 188], the IC50 in assay [1] was 1010 to 3000 nM; in assay [1] (setting [3]), 1540 nM; in assay [2], 101 to 1000 nM; in assay [2] (setting [3]), 275 nM.
As to `CCOC[C@@H]1C[C@H](COCC)C[C@H](c2n[nH]cc2CN(C)CCNC)C1` [Compound 189], the IC50 in assay [1] was 101 to 1000 nM; in assay [1] (setting [3]), 478 nM; in assay [2] it was 101 to 1000 nM; in assay [2] (setting [3]), 108 nM.
Turning to `CNCCN(C)Cc1c[nH]nc1C1CCC(=O)N(CCCOC)C1` (centres unmarked) [Compound 190], the IC50 in assay [1] is 101 to 1000 nM; in assay [1] (setting [3]), 352 nM; in assay [2] it was 101 to 1000 nM; in assay [2] (setting [3]), 124 nM.
In the case of `CNCCN(C)Cc1c[nH]nc1C1CCC(=O)N(Cc2ccc(C(F)(F)F)cc2)C1` (centres unmarked) [Compound 191], the half-inhibitory concentration (IC50) was 101 to 1000 nM in assay [1], 152 nM in assay [1] (setting [3]), below 100 nM in assay [2] and 50.4 nM in assay [2] (setting [3]).
In the case of `CNCCN(C)Cc1c[nH]nc1[C@H]1CC[C@H](N(CC2CCOCC2)C(=O)CC(C)C)CC1` [Compound 192], the IC50 in assay [1] is 101 to 1000 nM; in assay [1] (setting [3]), 459 nM; in assay [2], 101 to 1000 nM; in assay [2] (setting [3]), 216 nM.
In the case of `CNCCN(C)Cc1c[nH]nc1[C@H]1CC[C@H](N(CC(C)C)C(=O)CC2CCOCC2)CC1` [Compound 193], the IC50 in assay [1] was below 100 nM; in assay [1] (setting [3]) it was 68.8 nM; in assay [2], below 100 nM; in assay [2] (setting [3]), 28.4 nM.
In the case of `CNCCN(C)Cc1c[nH]nc1C1CCC(=O)CC1` [Compound 194], the IC50 in assay [1] was below 100 nM; in assay [1] (setting [3]) it was 35.3 nM; in assay [2], below 100 nM; in assay [2] (setting [3]), 14.5 nM.
For `CCN(C(=O)CC1CCOCC1)[C@H]1CC[C@H](c2n[nH]cc2CN(C)CCNC)CC1` [Compound 195], the IC50 in assay [1] is below 100 nM; in assay [1] (setting [3]), 35.6 nM; in assay [2], below 100 nM; in assay [2] (setting [3]), 14.4 nM.
Regarding `CCN(C(=O)CC1CCOCC1)[C@H]1CC[C@@H](c2n[nH]cc2CN(C)CCNC)CC1` [Compound 196], the IC50 in assay [1] is 101 to 1000 nM; in assay [1] (setting [3]), 415 nM; in assay [2] it was 101 to 1000 nM; in assay [2] (setting [3]) it was 149 nM.
As to `CNCCN(C)Cc1c[nH]nc1[C@H]1CC[C@]2(CCN(Cc3cc(F)cc(F)c3)C2=O)CC1` [Compound 197], the IC50 was below 100 nM in assay [1], 15.6 nM in assay [1] (setting [3]), below 100 nM in assay [2] and 8.27 nM in assay [2] (setting [3]).
As for `CNCCN(C)Cc1c[nH]nc1[C@H]1CC[C@]2(CCCO2)OC1` [Compound 198], the IC50 in assay [1] was 3010 to 10000 nM; in assay [1] (setting [3]), at least 10000 nM; in assay [2], 3010 to 10000 nM; in assay [2] (setting [3]), at least 10000 nM.
For `CNCCN(C)Cc1c[nH]nc1C1CCC2(CCCC2)OC1` (centres unmarked) [Compound 199], the IC50 in assay [1] was below 100 nM; in assay [1] (setting [3]), 38.3 nM; in assay [2], below 100 nM; in assay [2] (setting [3]), 16.8 nM.
With `CNCCN(C)Cc1n[nH]cc1[C@H]1CC[C@@]2(CC1)CC(C)(C)CO2` [Compound 200, Methyl[2-(methylamino)ethyl]([4-[(5S,8S)-3,3-dimethyl-1-oxaspiro[4.5]decan-8-yl]-1H-pyrazol-3-yl]methyl)amine trifluoroacetic acid salt], the IC50 in assay [1] and in assay [2] was below 100 nM in each case.
In the case of `CNCCN(C)Cc1n[nH]cc1[C@H]1CC[C@]2(CC1)CC(C)(C)CO2` [Compound 201], the IC50 in assay [1] and in assay [2] was below 100 nM each time.
Turning to `CCOCC1CC(c2n[nH]cc2CN(C)CCNC)CCC1(C)C` (centres unmarked) [Compound 202], the IC50 was below 100 nM in assay [1], 26.9 nM in assay [1] (setting [3]), below 100 nM in assay [2] and 12.7 nM in assay [2] (setting [3]).
Consider `CNCCN(C)Cc1n[nH]cc1[C@H]1CC[C@H](C(=O)NCCC(C)C)CC1` [Compound 203], for which the IC50 was below 100 nM in assay [1], 84.4 nM in assay [1] (setting [3]), below 100 nM in assay [2] and 28.4 nM in assay [2] (setting [3]).
Take `CNCCN(C)Cc1c[nH]nc1[C@H]1CC[C@@H](C(=O)NCCC(C)C)CC1` [Compound 204]: the concentration for half-maximal inhibition (IC50) is below 100 nM in assay [1], 51.6 nM in assay [1] (setting [3]), below 100 nM in assay [2] and 18.4 nM in assay [2] (setting [3]).
In the case of `CNCCN(C)Cc1cn(C)nc1[C@H]1CC[C@@]2(CC1)CC(C)(C)CO2` [Compound 205, Methyl([1-methyl-3-[(5S,8S)-3,3-dimethyl-1-oxaspiro[4.5]decan-8-yl]-1H-pyrazol-4-yl]methyl)[2-(methylamino)ethyl]amine hydrochloride], the IC50 in assay [1] is below 100 nM; in assay [1] (setting [3]), 15.4 nM; in assay [2], below 100 nM; in assay [2] (setting [3]) it was 12.8 nM.
Regarding `CNCCN(C)Cc1cn(C)nc1[C@H]1CC[C@]2(CC1)CC(C)(C)CO2` [Compound 206, Methyl([1-methyl-3-[(5R,8S)-3,3-dimethyl-1-oxaspiro[4.5]decan-8-yl]-1H-pyrazol-4-yl]methyl)[2-(methylamino)ethyl]amine hydrochloride], the half-inhibitory concentration (IC50) in assay [1] was below 100 nM; in assay [1] (setting [3]), 28.9 nM; in assay [2], below 100 nM; in assay [2] (setting [3]), 19.5 nM.
`CN(CCN)Cc1c[nH]nc1[C@H]1CC[C@@]2(CC1)CC(C)(C)CO2` [Compound 207]: the IC50 in assay [1] and in assay [2] was below 100 nM each time.
`CN(CCN)Cc1c[nH]nc1[C@H]1CC[C@]2(CC1)CC(C)(C)CO2` [Compound 208]: the 50% inhibitory concentration (IC50) in assay [1] is below 100 nM; in assay [1] (setting [3]), 12.8 nM; in assay [2] it was below 100 nM; in assay [2] (setting [3]), 6.94 nM.
For the compound `CNCCN(C)Cc1c[nH]nc1[C@H]1CC[C@H](C(=O)N(C)CCC(C)C)CC1` [Compound 209], the 50% inhibitory concentration (IC50) in assay [1] was below 100 nM; in assay [1] (setting [3]) it was 43.9 nM; in assay [2] it was below 100 nM; in assay [2] (setting [3]) it was 27.8 nM.
`CNCCN(C)Cc1c[nH]nc1[C@H]1CC[C@@H](C(=O)N(C)CCC(C)C)CC1` [Compound 210]: the IC50 is below 100 nM in assay [1], 22.9 nM in assay [1] (setting [3]), below 100 nM in assay [2] and 13.1 nM in assay [2] (setting [3]).
As for `CNCCN(C)Cc1c[nH]nc1[C@H]1CC[C@H](C(=O)NCCOc2ccccc2)CC1` [Compound 211], the IC50 in assay [1] is below 100 nM; in assay [1] (setting [3]), 10 nM; in assay [2] it was below 100 nM; in assay [2] (setting [3]) it was 8.28 nM.
With `CNCCN(C)Cc1c[nH]nc1[C@H]1CC[C@@H](C(=O)NCCOc2ccccc2)CC1` [Compound 212], the half-maximal inhibitory concentration (IC50) is below 100 nM in assay [1], 8.28 nM in assay [1] (setting [3]), below 100 nM in assay [2] and 5.57 nM in assay [2] (setting [3]).
Take `CNCCN(C)Cc1c[nH]nc1[C@H]1CC[C@H](C(=O)N(CCCOC)CCC(C)C)CC1` [Compound 213]: the IC50 in assay [1] was 101 to 1000 nM; in assay [1] (setting [3]), 165 nM; in assay [2] it was below 100 nM; in assay [2] (setting [3]), 53.9 nM.
As to `CNCCN(C)Cc1c[nH]nc1[C@H]1CC[C@@H](C(=O)N(CCCOC)CCC(C)C)CC1` [Compound 214], the IC50 in assay [1] was below 100 nM; in assay [1] (setting [3]) it was 27.4 nM; in assay [2], below 100 nM; in assay [2] (setting [3]) it was 19.8 nM.
For the compound `CNCCN(C)Cc1c[nH]nc1[C@H]1CC[C@@H](C(=O)N(C)CC(C)C)CC1` [Compound 215], the IC50 in assay [1] is below 100 nM; in assay [1] (setting [3]), 23 nM; in assay [2] it was below 100 nM; in assay [2] (setting [3]) it was 14.1 nM.
Consider `CNCCN(C)Cc1c[nH]nc1C1CCC(F)(F)CC1` [Compound 216], for which the 50% inhibitory concentration (IC50) is below 100 nM in assay [1], 17.8 nM in assay [1] (setting [3]), below 100 nM in assay [2] and 12.1 nM in assay [2] (setting [3]).
With `CNCCN(C)Cc1c[nH]nc1[C@H]1CC[C@@H](O)CC1` [Compound 217, 4-[4-([methyl[2-(methylamino)ethyl]amino]methyl)-1H-pyrazol-3-yl]cyclohexan-1-ol trifluoroacetate], the half-inhibitory concentration (IC50) in assay [1] was below 100 nM; in assay [1] (setting [3]), 59.5 nM; in assay [2] it was below 100 nM; in assay [2] (setting [3]), 30.2 nM.
Regarding `CNCCN(C)Cc1c[nH]nc1[C@H]1CC[C@@H](N(CCOc2ccccc2)C(=O)CCOC)CC1` [Compound 218], the concentration for half-maximal inhibition (IC50) was below 100 nM in assay [1], 67 nM in assay [1] (setting [3]), below 100 nM in assay [2] and 41.7 nM in assay [2] (setting [3]).
As to `CNCCN(C)Cc1c[nH]nc1[C@H]1CC[C@H](N(CCOc2ccccc2)C(=O)CCOC)CC1` [Compound 219], the half-inhibitory concentration (IC50) in assay [1] is below 100 nM; in assay [1] (setting [3]) it was 15 nM; in assay [2], below 100 nM; in assay [2] (setting [3]), 8.96 nM.
In the case of `CCC(=O)N(CCOc1ccccc1)[C@H]1CC[C@@H](c2n[nH]cc2CN(C)CCNC)CC1` [Compound 220], the IC50 in assay [1] is below 100 nM; in assay [1] (setting [3]) it was 12.9 nM; in assay [2], below 100 nM; in assay [2] (setting [3]) it was 9.29 nM.
`CCC(=O)N(CCOc1ccccc1)[C@H]1CC[C@H](c2n[nH]cc2CN(C)CCNC)CC1` [Compound 221]: the IC50 in assay [1] is below 100 nM; in assay [1] (setting [3]) it was 15.4 nM; in assay [2], below 100 nM; in assay [2] (setting [3]), 6.44 nM.
As to `CNCCN(C)Cc1c[nH]nc1[C@H]1CC[C@@H](N(CCOc2ccccc2)C(=O)CC(C)C)CC1` [Compound 222], the IC50 in assay [1] is below 100 nM; in assay [1] (setting [3]) it was 90 nM; in assay [2] it was below 100 nM; in assay [2] (setting [3]) it was 43 nM.

The values are drawn from patent US11512053B2, “Arginine methyltransferase inhibitors and uses thereof” (priority 2013, dated 2022).
